How the values were obtained:
COMT [1] = assay: COMT activity (methylation of adrenaline to metanephrine) in rat liver homogenates; assay type: biochemical; details: rat liver homogenate; test compound 3 μM; means±SEM, n=4-8
COMT [2] = assay: COMT activity (methylation of adrenaline to metanephrine) in rat brain homogenates; assay type: biochemical; details: rat brain homogenate; test compound 100 nM; means±SEM, n=4-8
COMT [3] = target: T1, COMT (Homo sapiens, UniProt P21964); assay: COMT activity in intact SK-N-SH cell monolayers; assay type: cell-based; details: SK-N-SH cells; test compound 100 nM; means±SEM, n=4-8
T1 construct: COMT activity was evaluated in cell monolayers by the ability to methylate adrenaline; host or cells: SK-N-SH cells
T1 sequence (P21964 1-271): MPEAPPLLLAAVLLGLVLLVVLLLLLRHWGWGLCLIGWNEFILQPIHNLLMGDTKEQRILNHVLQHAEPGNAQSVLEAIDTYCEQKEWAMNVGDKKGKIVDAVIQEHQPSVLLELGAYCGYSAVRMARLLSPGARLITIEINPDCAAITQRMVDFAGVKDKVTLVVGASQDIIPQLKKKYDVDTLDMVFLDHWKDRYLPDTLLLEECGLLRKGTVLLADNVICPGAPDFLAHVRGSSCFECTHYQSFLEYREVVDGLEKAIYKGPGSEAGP

Row | SMILES | COMT activity, Liver (% of control) (COMT [1]) | COMT activity, Brain (% of control) (COMT [2]) | COMT activity, SK-N-SH (% of control) (COMT [3])
1 | CCOC(=O)Oc1cc(C(=O)c2ccccc2)c(C(=O)c2ccccc2)c([N+](=O)[O-])c1OC(=O)OCC [Compound 23, Carbonic Acid 4,5-Dibenzoyl-2-ethoxycarbonyloxy-3-nitro-phenyl Ester Ethyl Ester] | 2.5 ± 1.2 % of control | 10 ± 1 % of control | 24 ± 1 % of control
2 | CC(=O)Oc1cc2c(c([N+](=O)[O-])c1OC(C)=O)C(=O)C(C)(C)CC2 [Compound 25, Acetic Acid, 3-Acetoxy-7,7-dimethyl-1-nitro-8-oxo-5,6,7,8-tetrahydro-naphthalen-2-yl Ester] | 1.7 ± 0.1 % of control | 19 ± 1 % of control | 39 ± 1 % of control
3 | O=C(CCN1CCOCC1)c1ccc(O)c(O)c1[N+](=O)[O-] [Compound 26, 1-(3,4-dihydroxy-2-nitro-phenyl)-3-morpholin4-yl-propan-1-one] | 0.9 ± 0.1 % of control | 9 ± 0 % of control | 12 ± 1 % of control
4 | O=C(CCN1CCCCC1)c1ccc(O)c(O)c1[N+](=O)[O-] [Compound 27, 1-(3,4-Dihydroxy-2-nitro-phenyl)-3-piperidin-1-yl-propan-1-one] | 2.4 ± 0.2 % of control | 15 ± 1 % of control | 5 ± 1 % of control
5 | O=C(CCN1CCCC1)c1ccc(O)c(O)c1[N+](=O)[O-] [Compound 28, 1-(3,4-Dihydroxy-2-nitro-phenyl)-3-pyrrolidin-1-yl-propan-1-one] | 2.2 ± 0.2 % of control | 14 ± 1 % of control | 7 ± 0 % of control
6 | O=C1c2c(cc(O)c(O)c2[N+](=O)[O-])CC1CN1CCOCC1 (stereo not drawn) [Compound 29, 5,6-Dihydroxy-2-morpholin-4-ylmethyl-7-nitro-indan-1-one] | 0.6 ± 0.0 % of control | 12 ± 1 % of control | 21 ± 1 % of control
7 | O=C1c2c(cc(O)c(O)c2[N+](=O)[O-])CC1CN1CCCCC1 (stereo not drawn) [Compound 30, 5,6-Dihydroxy-7-nitro-2-piperidin-1-ylmethyl-indan-1-one] | 1.4 ± 0.1 % of control | 8 ± 0 % of control | 17 ± 1 % of control
8 | CCN(CC)C(=O)C1CCCN(CCC(=O)c2ccc(O)c(O)c2[N+](=O)[O-])C1 (stereo not drawn) [Compound 31, 1-[3-(3,4-Dihydroxy-2-nitro-phenyl)-3-oxo-propyl]-piperidine-3-carboxylic acid diethylamide] | 1.7 ± 0.6 % of control | 8 ± 0 % of control | 13 ± 2 % of control
9 | CC1CCCN(CCC(=O)c2ccc(O)c(O)c2[N+](=O)[O-])C1 (stereo not drawn) [Compound 32, 1-(3,4-Dihydroxy-2-nitro-phenyl)-3-(3-methyl-piperidin-1-yl)-propan-1-one] | 2.3 ± 0.2 % of control | 10 ± 0 % of control | 11 ± 2 % of control
10 | CC1CCN(CCC(=O)c2ccc(O)c(O)c2[N+](=O)[O-])CC1 [Compound 33, 1-(3,4-Dihydroxy-2-nitro-phenyl)-3-(4-methyl-piperidin-1-yl)-propan-1-one] | 2.2 ± 0.3 % of control | 6 ± 0 % of control | 14 ± 0 % of control
11 | O=C(CCN1CCCC2CCCCC21)c1ccc(O)c(O)c1[N+](=O)[O-] (stereo not drawn) [Compound 34, 1-(3,4-Dihydroxy-2-nitro-phenyl)-3-(octahydro-quinolin-1-yl)-propan-1-one] | 1.6 ± 0.2 % of control | 5 ± 0 % of control | 11 ± 2 % of control
12 | CC1CC(C)CN(CCC(=O)c2ccc(O)c(O)c2[N+](=O)[O-])C1 (stereo not drawn) [Compound 35, 1-(3,4-Dihydroxy-2-nitro-phenyl)-3-(3,5-dimethyl-piperidin-1-yl)-propan-1-one] | 23. ± 0.3 % of control | 9 ± 0 % of control | 13 ± 1 % of control
13 | O=C(CCN1CCC(Cc2ccccc2)CC1)c1ccc(O)c(O)c1[N+](=O)[O-] [Compound 36, 3-(4-benzyl-piperidin-1-yl)-1-(3,4-Dihydroxy-2-nitro-phenyl)-propan-1-one] | 2.2 ± 0.4 % of control | 6 ± 0 % of control | 9 ± 2 % of control
14 | COc1ccc(N2CCN(CCC(=O)c3ccc(O)c(O)c3[N+](=O)[O-])CC2)cc1 [Compound 37, 1-(3,4-Dihydroxy-2-nitro-phenyl)-3-[4-(4-methoxy-phenyl)-piperazin-1-yl]-propan-1-one] | 1.7 ± 0.3 % of control | 6 ± 0 % of control | 6 ± 2 % of control
15 | O=C(CCN1CCN(c2cccc(C(F)(F)F)c2)CC1)c1ccc(O)c(O)c1[N+](=O)[O-] [Compound 38, 1-(3,4-Dihydroxy-2-nitro-phenyl)-3-[4-(3-trifluoromethyl-phenyl)-piperazin-1-yl]-propan-1-one] | 11.2 ± 1.5 % of control | 7 ± 0 % of control | 6 ± 1 % of control
16 | CCCN1CCN(CCC(=O)c2ccc(O)c(O)c2[N+](=O)[O-])CC1 [Compound 39, 1-(3,4-Dihydroxy-2-nitro-phenyl)-3-(4-propyl-piperazin-1-yl)-propan-1-one] | 0.8 ± 0.2 % of control | 8 ± 0 % of control | 11 ± 0 % of control
17 | CC(=O)Oc1ccc(C(=O)C=Cc2ccccc2)c([N+](=O)[O-])c1OC(C)=O [Compound 40, Acetic acid, 6-acetoxy-2-nitro-3-(3-phenyl-acryloyl)-phenyl ester] | 1.6 ± 0.4 % of control | 10 ± 0 % of control | 8 ± 1 % of control
18 | O=C(C=Cc1ccccc1)c1ccc(O)c(O)c1[N+](=O)[O-] [Compound 41, 1-(3,4-dihydroxy-2-nitro-phenyl)-3-phenyl-propenone] | 1.1 ± 0.2 % of control | 9 ± 1 % of control | 5 ± 0 % of control
19 | O=C(CN1CCOCC1)c1ccc(O)c(O)c1[N+](=O)[O-] [Compound 42, 1-(3,4-Dihydroxy-2-nitro-phenyl)-2-morpholin-4-yl-ethanone] | 0.8 ± 0.2 % of control | 13 ± 0 % of control | 27 ± 1 % of control
20 | O=C1c2c(cc(O)c(O)c2[N+](=O)[O-])CC1CN1CCN(c2cccc(C(F)(F)F)c2)CC1 (stereo not drawn) [Compound 43, 5,6-Dihydroxy-7-nitro-2-[4-(3-trifluoromethyl-phenyl)-piperazin-1-ylmethyl]-indan-1-one] | 0.9 ± 0.2 % of control | 10 ± 1 % of control | 19 ± 7 % of control
21 | O=C1c2c(cc(O)c(O)c2[N+](=O)[O-])CC1CN1CCN(c2ccccc2)CC1 (stereo not drawn) [Compound 44, 5,6-Dihydroxy-7-nitro-2-(4-phenyl-piperazin-1-ylmethyl)-indan-1-one] | 0.6 ± 0.2 % of control | 10 ± 0 % of control | 9 ± 2 % of control
22 | CC(=O)Oc1ccc(C(=O)Cc2ccccc2)c([N+](=O)[O-])c1OC(C)=O [Compound 45, Acetic acid, 6-acetoxy-2-nitro-3-phenylacetyl-phenyl ester] | 0.7 ± 0.2 % of control | 0 ± 0 % of control | 7 ± 3 % of control
23 | CCCC(=O)Oc1ccc(C(=O)Cc2ccccc2)c([N+](=O)[O-])c1OC(=O)CCC [Compound 47, Butyric acid, 6-butyryloxy-2-nitro-3-phenylacetyl-phenyl ester] | 0.6 ± 0.2 % of control | 0 ± 0 % of control | 1 ± 1 % of control
24 | CCOC(=O)Oc1ccc(C(=O)Cc2ccccc2)c([N+](=O)[O-])c1OC(=O)OCC [Compound 48, Carbonic acid, 2-ethoxycarbonyloxy-3-nitro-4-phenylacetyl-phenyl ester ethyl ester] | 0.5 ± 0.1 % of control | 0 ± 0 % of control | 7 ± 3 % of control
25 | CC(=O)Oc1ccc(C(=O)CCCc2ccccc2)c([N+](=O)[O-])c1OC(C)=O [Compound 49, Acetic acid, 6-acetoxy-2-nitro-3-(4-phenyl-butyryl)-phenyl ester] | 1.4 ± 0.8 % of control | 0 ± 0 % of control | 1 ± 0 % of control

Reference: patent US20020037931A1, “Substituted nitrated catechols, their use in the treatment of some central and peripheral nervous system disorders and pharmaceutical compositions containing them” (priority 2000, published 2002)
